In BindingDB's records for doi:10.1016/j.bmc.2016.03.038 (2016):

Tests used:
[1] = Inhibition of mouse GAT3 expressed in HEK293 cells assessed as [3H]GABA uptake preincubated for 25 mins followed by [3H]GABA/unlabeled GABA addition measured after 4 mins by liquid scintillation counting analysis
[2] = Inhibition of mouse GAT2 expressed in HEK293 cells assessed as [3H]GABA uptake preincubated for 25 mins followed by [3H]GABA/unlabeled GABA addition measured after 10 mins by liquid scintillation counting analysis

Row | SMILES | IC50 [1] [µM] | IC50 [2] [µM]
1 | O=C(O)[C@H]1CNCC[C@H]1CCCC#Cc1ccccc1Cc1ccccc1 | 37.6 | –
2 | O=C(O)[C@H]1CNCC[C@H]1CCCC/C=C/c1ccccc1-c1ccccc1 | – | 52.2
3 | O=C(O)[C@H]1CNCC[C@@H]1CCCC/C=C/c1ccccc1-c1ccccc1 | 44.5 | –
4 | O=C(O)[C@H]1CNCC[C@H]1CC/C=C/c1ccccc1Cc1ccccc1 | 62.5 | –
